From patent publication US20230002505A1, “TREATMENT OF THERAPY-RESISTANT HER-2 POSITIVE BREAST CANCER” (OREGON HEALTH & SCIENCE UNIVERSITY, priority 2017, published 2023)

How the values were obtained:
Type in all cases: cell-based, human
[1] = tested on: HCC-1954 cells; test: In vitro proliferation of parental HCC-1954 cells after panitumumab treatment; details: parental HCC-1954, HER-2 positive, trastuzumab and lapatinib resistant; blocking HER-1 function
[2] = tested on: 21MT1 cells; test: In vitro proliferation of parental 21MT1 cells after panitumumab treatment; details: parental 21MT1, HER-2 positive, trastuzumab and lapatinib resistant; blocking HER-1 function
[3] = tested on: JimT1 cells; test: In vitro proliferation of parental JimT1 cells after panitumumab treatment; details: parental JimT1, HER-2 positive, trastuzumab and lapatinib resistant; blocking HER-1 function

Measured: proliferation in vitro

Panitumumab
decreased proliferation: [1] | [2] | [3]
